Experiments:
EGFR (human) = EGFR (human) (UniProt P00533); conditions: nih3t3
EGFR = EGFR (UniProt P00533)
EGFR, sequence (P00533 whole entry, looked up): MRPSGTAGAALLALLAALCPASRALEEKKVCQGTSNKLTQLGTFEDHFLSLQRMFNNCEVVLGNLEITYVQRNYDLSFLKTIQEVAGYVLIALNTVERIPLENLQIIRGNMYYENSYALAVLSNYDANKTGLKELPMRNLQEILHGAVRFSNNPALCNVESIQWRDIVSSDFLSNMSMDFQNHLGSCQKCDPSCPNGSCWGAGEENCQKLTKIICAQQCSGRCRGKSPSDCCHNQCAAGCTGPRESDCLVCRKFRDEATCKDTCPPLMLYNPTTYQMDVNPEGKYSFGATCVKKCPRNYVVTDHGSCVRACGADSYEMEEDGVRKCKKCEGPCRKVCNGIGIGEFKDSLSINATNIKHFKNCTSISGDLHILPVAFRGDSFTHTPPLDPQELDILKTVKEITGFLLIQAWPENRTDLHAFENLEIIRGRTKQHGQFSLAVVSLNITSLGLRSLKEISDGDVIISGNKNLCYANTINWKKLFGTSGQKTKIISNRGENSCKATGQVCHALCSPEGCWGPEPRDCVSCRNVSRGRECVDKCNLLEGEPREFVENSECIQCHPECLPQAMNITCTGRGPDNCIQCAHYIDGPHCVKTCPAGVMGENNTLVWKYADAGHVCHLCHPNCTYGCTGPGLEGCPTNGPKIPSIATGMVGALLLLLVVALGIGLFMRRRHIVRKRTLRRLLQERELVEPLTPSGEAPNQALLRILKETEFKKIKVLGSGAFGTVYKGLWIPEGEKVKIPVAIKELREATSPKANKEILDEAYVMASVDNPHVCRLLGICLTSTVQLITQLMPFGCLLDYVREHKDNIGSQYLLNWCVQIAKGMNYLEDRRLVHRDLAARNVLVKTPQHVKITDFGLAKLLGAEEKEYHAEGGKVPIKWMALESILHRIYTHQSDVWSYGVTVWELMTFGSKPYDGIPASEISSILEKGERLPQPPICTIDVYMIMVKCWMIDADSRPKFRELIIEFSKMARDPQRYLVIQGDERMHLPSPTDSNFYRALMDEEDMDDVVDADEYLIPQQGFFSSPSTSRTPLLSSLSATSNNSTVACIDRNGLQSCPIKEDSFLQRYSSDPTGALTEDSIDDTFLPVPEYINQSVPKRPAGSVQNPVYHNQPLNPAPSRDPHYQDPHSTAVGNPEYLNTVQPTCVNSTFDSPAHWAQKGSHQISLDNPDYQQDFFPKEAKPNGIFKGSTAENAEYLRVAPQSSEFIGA

EGFR (human), sequence (P00533 whole entry, looked up): as above

| SMILES | IC50 (EGFR (human)) | IC50 (EGFR) |
| --- | --- | --- |
| COc1ccc(-c2ccc3c(c2)NC(=O)/C3=C\c2[nH]c(C)c(CCCN(C)C)c2C)cc1 |  | > 100 µM |
| Cc1c(CCC(=O)O)c[nH]c1/C=C1\C(=O)Nc2cc(Cl)ccc21 | > 50 µM |  |
| Cc1c(CCC(=O)O)c[nH]c1/C=C1\C(=O)Nc2ccccc21 | > 50 µM |  |
| COc1ccc2c(c1)/C(=C/c1[nH]c(C)c(CCCN(C)C)c1C)C(=O)N2 |  | > 100 µM |
| COc1ccccc1-c1ccc2c(c1)NC(=O)/C2=C\c1[nH]c(C)c(CCCN2CCOCC2)c1C |  | > 100 µM |
| COc1ccc2c(c1)NC(=O)/C2=C\c1[nH]c(C)c(CCCN(C)C)c1C |  | > 100 µM |
| Cc1c(CCC(=O)O)c[nH]c1/C=C1\C(=O)Nc2ccc(I)cc21 | > 50 µM |  |
| Cc1[nH]c(/C=C2\C(=O)Nc3ccc(Br)cc32)c(C)c1CCC(=O)O | > 50 µM |  |
| Cc1c(CCC(=O)O)c[nH]c1/C=C1\C(=O)Nc2ccc(Br)cc21 | > 50 µM |  |
| Cc1cccc2c1/C(=C/c1[nH]cc(CCC(=O)O)c1C)C(=O)N2 | > 50 µM |  |
| Cc1c(CCC(=O)O)c[nH]c1/C=C1\C(=O)Nc2cc(Br)ccc21 | > 50 µM |  |
| Cc1ccc2c(c1)/C(=C/c1[nH]c(C)c(CCC(=O)O)c1C)C(=O)N2 | > 50 µM |  |
| Cc1cccc2c1/C(=C/c1[nH]c(C)c(CCC(=O)O)c1C)C(=O)N2 | > 50 µM |  |
| COc1ccc(-c2ccc3c(c2)NC(=O)/C3=C\c2[nH]c(C)c(CCCN3CCOCC3)c2C)cc1 |  | > 100 µM |
| Cc1[nH]c(/C=C2\C(=O)Nc3ccc(S(=O)(=O)NC(C)C)cc32)c(C)c1CCCN(C)C |  | > 100 µM |
| COc1cccc(-c2ccc3c(c2)NC(=O)/C3=C\c2[nH]c(C)c(CCCN3CCOCC3)c2C)c1 |  | > 100 µM |
| Cc1[nH]c(/C=C2\C(=O)Nc3ccc(Cl)cc32)c(C)c1CCC(=O)O | > 50 µM |  |
| Cc1[nH]c(/C=C2\C(=O)Nc3ccccc32)c(C)c1CCCN1CCOCC1 | > 50 µM | > 100 µM |

Next, values leading:

| IC50 (EGFR (human)) | IC50 (EGFR) | SMILES |
| --- | --- | --- |
| 25.3 µM | > 100 µM | Cc1[nH]c(/C=C2\C(=O)Nc3cccc(CCO)c32)c(C)c1CCCN(C)C |
| > 50 µM | > 100 µM | Cc1[nH]c(/C=C2\C(=O)Nc3cc(-c4ccccc4)ccc32)c(C)c1CCCN1CCOCC1 |
| 4.1 µM | > 100 µM | Cc1[nH]c(/C=C2\C(=O)Nc3ccc(Br)cc32)c(C)c1CCCN(C)C |
| > 50 µM |  | Cc1[nH]c(/C=C2\C(=O)Nc3ccc(I)cc32)c(C)c1CCC(=O)O |
| > 50 µM |  | Cc1ccc2c(c1)/C(=C/c1[nH]cc(CCC(=O)O)c1C)C(=O)N2 |
| > 50 µM |  | Cc1[nH]c(/C=C2\C(=O)Nc3cc(O)ccc32)c(C)c1CCC(=O)O |
| 29.8 µM | > 100 µM | Cc1[nH]c(/C=C2\C(=O)Nc3ccc(S(=O)(=O)N4CCOCC4)cc32)c(C)c1CCCN(C)C |
| 12.6 µM | > 100 µM | Cc1[nH]c(/C=C2\C(=O)Nc3ccccc32)c(C)c1CCCN(C)C |
| 6.59 µM | > 100 µM | Cc1[nH]c(/C=C2\C(=O)Nc3ccc(S(N)(=O)=O)cc32)c(C)c1CCCN(C)C |
| 4 µM | > 100 µM | Cc1[nH]c(/C=C2\C(=O)Nc3cc(-c4ccccc4)ccc32)c(C)c1CCCN(C)C |
| 25.4 µM | 86.6 µM | Cc1[nH]c(/C=C2\C(=O)Nc3cc(Cl)ccc32)c(C)c1CCCN(C)C |
| 44.6 µM | > 100 µM | Cc1[nH]c(/C=C2\C(=O)Nc3ccc(Br)cc32)c(C)c1CCCN1CCOCC1 |
| 25.4 µM | > 100 µM | Cc1ccc2c(c1)/C(=C/c1[nH]c(C)c(CCCN(C)C)c1C)C(=O)N2 |
| 7.49 µM | > 100 µM | Cc1[nH]c(/C=C2\C(=O)Nc3ccc(Cl)cc32)c(C)c1CCCN(C)C |
| 20.2 µM | > 100 µM | Cc1cccc2c1/C(=C/c1[nH]c(C)c(CCCN(C)C)c1C)C(=O)N2 |
| 12 µM |  | Cc1c(CCC(=O)O)c[nH]c1/C=C1\C(=O)Nc2ccc(Cl)cc21 |
| 30.5 µM |  | Cc1c(CCC(=O)O)c[nH]c1/C=C1\C(=O)Nc2cc(-c3ccccc3)ccc21 |
| 11.2 µM | > 100 µM | Cc1[nH]c(/C=C2\C(=O)Nc3ccc(S(=O)(=O)N(C)C)cc32)c(C)c1CCCN(C)C |
| 32.7 µM |  | Cc1[nH]c(/C=C2\C(=O)Nc3cc(-c4ccccc4)ccc32)c(C)c1CCC(=O)O |

Reference: the Kinase Knowledgebase extract (Sharma et al. 2016)
